Test results taken from PubChem BioAssay (NCI).
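These data come from cells grown in 96-well plates and exposed to compound for 48 hours at five concentrations. GI50 is the concentration that inhibits growth by half. Definition used: TGI = concentration required for complete inhibition of growth.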

Experiments:
Assay in all cases: DTP human tumour cell line panel, 48 h
[1] = tested on: NCI-H23 lung
[2] = tested on: NCI-H460 lung
[3] = tested on: NCI-H522 lung
[4] = tested on: NCI/ADR-RES ovarian
[5] = tested on: OVCAR-3 ovarian
[6] = tested on: OVCAR-4 ovarian
[7] = tested on: OVCAR-5 ovarian
[8] = tested on: OVCAR-8 ovarian
[9] = tested on: PC-3 prostate
[10] = tested on: RPMI-8226 leukemia
[11] = tested on: RXF 393 renal
[12] = tested on: SF-268 CNS
[13] = tested on: SF-295 CNS
[14] = tested on: SF-539 CNS
[15] = tested on: SK-MEL-2 melanoma
[16] = tested on: SK-MEL-28 melanoma
[17] = tested on: SK-MEL-5 melanoma
[18] = tested on: SK-OV-3 ovarian
[19] = tested on: SN12C renal
[20] = tested on: SNB-19 CNS
[21] = tested on: SNB-75 CNS
[22] = tested on: SR leukemia
[23] = tested on: SW-620 colon
[24] = tested on: T-47D breast
[25] = tested on: TK-10 renal
[26] = tested on: U251 CNS
[27] = tested on: UACC-257 melanoma
[28] = tested on: UACC-62 melanoma
[29] = tested on: UO-31 renal

Which results are given for Cc1cnc(Nc2ccc(N3CCN(C)CC3)cc2)nc1Nc1ccc(Cl)c(NS(=O)(=O)C(C)(C)C)c1?
GI50 [1]: 379 nM; TGI [1]: 6550 nM; GI50 [2]: 267 nM; TGI [2]: 10300 nM; GI50 [3]: 73 nM; TGI [3]: 1600 nM; GI50 [4]: 511 nM; TGI [4]: 6090 nM; GI50 [5]: 324 nM; TGI [5]: 2930 nM; GI50 [6]: 180 nM; TGI [6]: 23700 nM; GI50 [7]: 219 nM; TGI [7]: 13400 nM; GI50 [8]: 652 nM; TGI [8]: 8100 nM; GI50 [9]: 408 nM; TGI [9]: 16900 nM; GI50 [10]: 136 nM; TGI [10]: 1310 nM; GI50 [11]: 136 nM; TGI [11]: 959 nM; GI50 [12]: 474 nM; TGI [12]: 3540 nM; GI50 [13]: 524 nM; TGI [13]: 2950 nM; GI50 [14]: 434 nM; TGI [14]: 1840 nM; GI50 [15]: 310 nM; TGI [15]: 3760 nM; GI50 [16]: 772 nM; TGI [16]: 2730 nM; GI50 [17]: 312 nM; TGI [17]: 1510 nM; GI50 [18]: 97.2 nM; TGI [18]: 808 nM; GI50 [19]: 542 nM; TGI [19]: 12000 nM; GI50 [20]: 1340 nM; TGI [20]: 18500 nM; GI50 [21]: < 25.6 nM; TGI [21]: 828 nM; GI50 [22]: 92 nM; TGI [22]: 6260 nM; GI50 [23]: 232 nM; TGI [23]: 5450 nM; GI50 [24]: 349 nM; TGI [24]: 15500 nM; GI50 [25]: 63.8 nM; TGI [25]: 936 nM; GI50 [26]: 840 nM; TGI [26]: 11700 nM; GI50 [27]: 1360 nM; TGI [27]: 2880 nM; GI50 [28]: 80.8 nM; TGI [28]: 1680 nM; GI50 [29]: 87.7 nM; TGI [29]: 1290 nM
